Measurements published in US20120277238A1, “PHARMACEUTICAL COMPOSITION CONTAINING FUSED HETERO-RING DERIVATIVE” (Shionogi & Co., Ltd, priority 2009, published 2012).

Columns and labels:
human HRH4 = target: T1, human HRH4 (Homo sapiens, UniProt Q9H3N8); test: Histamine H4 receptor binding test ([3H]-Histamine radioligand binding); conditions: membrane fraction of CHO-K1 expressing human HRH4; [3H]-Histamine 15 nM; Ki by Cheng-Prusoff
T1 construct: purchased PerkinElmer
Experimental: Membrane fraction of CHO-K1 stably expressing human HRH4 was purchased from PerkinElmer. Radioligand binding assay was performed in 96 well polypropylene assay plates in a total assay volume of 150 μL. Membrane suspension (15 μg of protein) was mixed with [3H]-Histamine (PerkinElmer) at 15 nM and compounds at various concentration in 50 mM Tris-HCl pH7.4, 5 mM EDTA buffer. Assays were incubated for 60 min at room temperature, then the reactions were terminated by rapid filtration over 96-well GF/B filter plates (PerkinElmer) presoaked in 0.5% polyethyleneimine. Unbound radioactivity was eliminated by six times of wash with 350 μL of ice-cold 50 mM Tris pH7.4 buffer. When the filter plates were dried, Microscint-MS liquid scintillation fluid (PerkinElmer) was added to each well and retained radioactivity plates were counted in a Topcount liquid scintillation counter (PerkinElmer). Specific binding was calculated by subtracting non-specific binding determined in the presence of 100 μM unlabeled histamine from total count.
The resulting data were analyzed for IC50 using the non-linear regression on XLfit.
Affinity values (Ki) were then determined by Cheng-Prusoff equation.

CYP1A2 = target: T2, CYP1A2 (Homo sapiens, UniProt P05177); test: CYP inhibition test (pooled human hepatic microsome); format: in vitro ADME; conditions: 7-ethoxyresorufin O-deethylation
T2 construct: enzyme, pooled human hepatic microsome 0.2 mg protein/mL; from tissue
T2 sequence (P05177 1-516): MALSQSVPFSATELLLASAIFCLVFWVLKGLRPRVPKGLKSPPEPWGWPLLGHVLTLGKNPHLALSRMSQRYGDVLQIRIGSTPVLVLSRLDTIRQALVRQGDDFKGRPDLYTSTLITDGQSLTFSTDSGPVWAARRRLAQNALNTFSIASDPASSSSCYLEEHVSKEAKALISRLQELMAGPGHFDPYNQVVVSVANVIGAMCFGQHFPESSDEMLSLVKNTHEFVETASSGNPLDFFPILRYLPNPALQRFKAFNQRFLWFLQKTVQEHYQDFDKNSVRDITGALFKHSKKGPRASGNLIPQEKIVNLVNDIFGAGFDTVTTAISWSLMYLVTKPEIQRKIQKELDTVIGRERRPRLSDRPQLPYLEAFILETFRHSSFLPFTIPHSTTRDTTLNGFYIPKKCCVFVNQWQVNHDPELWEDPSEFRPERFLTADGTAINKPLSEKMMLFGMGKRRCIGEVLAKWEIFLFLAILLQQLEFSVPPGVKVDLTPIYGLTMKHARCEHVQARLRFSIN
Experimental: (§1) Using commercially available pooled human hepatic microsome, and employing, as markers, 7-ethoxyresorufin O-deethylation (CYP1A2), tolbutamide methylhydroxylation (CYP2C9), mephenyloin 4′-hydroxylation (CYP2C19), dextromethorphan O-demethylation (CYP2D6), and terfenedine hydroxylation as typical substrate metabolism reactions of human main five CYP enzyme forms (CYP1A2, 2C9, 2C19, 2D6, 3A4), an inhibitory degree of each metabolite production amount by a test compound was assessed. The reaction conditions were as follows: substrate, 0.5 μmol/L ethoxyresorufin (CYP1A2), 100 μmol/L tolbutamide (CYP2C9), 50 μmol/L S-mephenitoin (CYP2C19), 5 μmol/L dextromethorphan (CYP2D6), 1 μmol/L terfenedine (CYP3A4); reaction time, 15 minutes; reaction temperature, 37° C.; enzyme, pooled human hepatic microsome 0.2 mg protein/mL; test drug concentration, 1, 5, 10, 20 μmol/L (four points). Each five kinds of substrates, human hepatic microsome, or a test drug in 50 mM Hepes buffer as a reaction solution was added to a 96-well plate at the composition as described above, NADPH, as a cofactor was added to initiate metabolism reactions as markers and, after the incubation at 37° C. for 15 minutes, a methanol/acetonitrile=1/1 (v/v) solution was added to stop the reaction. After the centrifugation at 3000 rpm for 15 minutes, resorufin (CYP1A2 metabolite) in the supernatant was quantified by a fluorescent multilabel counter and tributamide hydroxide (CYP2CP metabolite), mephenyloin 4′ hydroxide (CYP2C19 metabolite), […] (CYP2D6 metabolite), and terfenadine alcohol (CYP3A4 metabolite) were quantified by LC/MS/MS. Addition of only DMSO being a solvent dissolving a drug to a reaction system was adopted as a control (100%), remaining activity (%) was calculated at each concentration of a test drug added as the solution and IC50 was calculated by reverse presumption by a logistic model using a concentration and an inhibition rate.

CYP2C19 = target: T3, CYP2C19 (Homo sapiens, UniProt P33261); test: as above; format: in vitro ADME; conditions: mephenyloin 4′-hydroxylation
T3 construct: enzyme, pooled human hepatic microsome 0.2 mg protein/mL; from tissue
Experimental: as §1

CYP2C9 = target: T4, CYP2C9 (Homo sapiens, UniProt P11712); test: as above; format: in vitro ADME; conditions: tolbutamide methylhydroxylation
T4 construct: enzyme, pooled human hepatic microsome 0.2 mg protein/mL; from tissue
Experimental: as §1

CYP2D6 = target: T5, CYP2D6 (Homo sapiens, UniProt P10635); test: as above; format: in vitro ADME; conditions: dextromethorphan O-demethylation
T5 construct: enzyme, pooled human hepatic microsome 0.2 mg protein/mL; from tissue
Experimental: as §1

[1] = Solubility test (artificial intestinal juice pH 6.8, 1% DMSO); format: physicochemical; conditions: artificial intestinal juice pH 6.8 with 1% DMSO, fassgf or other biorelevant, kinetic from dmso stock, 25° C.
Experimental: The solubility of a compound is determined under a condition in which 1% DMSO is added. 10 mM compound solution is prepared using DMSO, and then 6 μL of the compound solution is added to 594 μL of artificial intestinal juice in pH 6.8 (to 250 mL of 0.2 mol/L potassium dihydrogen phosphate reagent solution is added 118 mL of 0.2 mol/L NaOH reagent solution and water to provide a final volume of 1000 mL). After standing at 25° C. for 16 hours, the mixed solution is filtrated with suction. The filtrate is diluted twice with methanol/water (1/1), and then a concentration in the filtration is measured with HPLC or LC/MS/MS by the absolute calibration method.

CYP3A4 [2] = target: T6, CYP3A4 (Homo sapiens, UniProt P08684); test: CYP3A4 fluorescent MBI test; format: in vitro ADME; parameters: host or cells: Escherichia coli; conditions: prereaction 0 or 30 minutes; substrate 7-BFC; CYP3A4 expressed in Escherichia coli
Experimental: The CYP3A4 fluorescent MBI test is a test of investigating enhancement of CYP3A4 inhibition of a compound by a metabolism reaction, and the test was performed using, as CYP3A4 enzyme expressed in Escherichia coli and employing, as an index, a reaction in which 7-benzyloxytrifluoromethylchmarin (BFC) is debenzylated by the CYP3A4 enzyme to produce a metabolite, 7-hydroxytrifluoromethylchmarin (HFC) emitting fluorescent light.
The reaction conditions were as follows: substrate, 5.6 μmol/L 7-BFC; prereaction time, 0 or 30 minutes; reaction time, 15 minutes; reaction temperature, 25° C. […]
An enzyme in a K-Pi buffer (pH 7.4) and a test drug solution as a pre-reaction solution were added to a 96-well plate at the composition of the pre-reaction, a part of it was transferred to another 96-well plate so that it was 1/10 diluted by a substrate in a K-Pi buffer, NADPH as a co-factor was added to initiate a reaction as an index (without preincubation) and, after a predetermined time of a reaction, acetonitrile/0.5 mol/L Tris(trishydroxyaminomethane)=4/1 was added to stop the reaction. […] For the plate on which each index reaction had been performed, a fluorescent value of 7-HFC which is a metabolite was measured with a fluorescent plate reader. […]

CYP3A4 [3] = target: T6, CYP3A4; test: CYP inhibition test (pooled human hepatic microsome); format: in vitro ADME; parameters: enzyme, pooled human hepatic microsome 0.2 mg protein/mL; from tissue; conditions: terfenedine hydroxylation
Experimental: Using commercially available pooled human hepatic microsome, and employing, as markers, 7-ethoxyresorufin O-deethylation (CYP1A2), tolbutamide methylhydroxylation (CYP2C9), mephenyloin 4′-hydroxylation (CYP2C19), dextromethorphan O-demethylation (CYP2D6), and terfenedine hydroxylation as typical substrate metabolism reactions of human main five CYP enzyme forms (CYP1A2, 2C9, 2C19, 2D6, 3A4), an inhibitory degree of each metabolite production amount by a test compound was assessed. […] After the centrifugation at 3000 rpm for 15 minutes, resorufin (CYP1A2 metabolite) in the supernatant was quantified by a fluorescent multilabel counter and tributamide hydroxide (CYP2CP metabolite), mephenyloin 4′ hydroxide (CYP2C19 metabolite), […], and terfenadine alcohol (CYP3A4 metabolite) were quantified by LC/MS/MS. Addition of only DMSO being a solvent dissolving a drug to a reaction system was adopted as a control (100%), remaining activity (%) was calculated at each concentration of a test drug added as the solution and IC50 was calculated by reverse presumption by a logistic model using a concentration and an inhibition rate.

[4] = Bioavailability (BA) test and total body clearance test; format: in vivo; conditions: plasma; rat; oral 1 mg/kg dosage
Experimental: (1) Animal: mice or rats (2) Breeding conditions: mice and rats are allowed to freely take solid feed and sterilized tap water (3) Dose and grouping: orally or intravenously administered at a predetermined dose; grouping is as follows (Dose depends on the compound)
Oral administration: 1 to 30 mg/kg (n=2 to 3)
Intravenous administration: 0.5 to 10 mg/kg (n=2 to 3)
(4) Preparation of dosing solution: for oral administration, in a solution or a suspension state; for intravenous administration, in a solubilized state (5) Administration method: in oral administration, forcedly administer into ventriculus with oral probe; in intravenous administration, administer from caudal vein with a needle-equipped syringe (6) Evaluation items: blood is collected over time, and the plasma concentration of drug is measured by LC/MS/MS (7) Statistical analysis: regarding the transition of the plasma concentration, the area under the plasma concentration-time curve (AUC) and total body clearance (Clt) are calculated by non-linear least squares program WinNonlin (Registered trademark), and the bioavailability (BA) is calculated from the AUCs of the oral administration group and intravenous administration group
The following values show the rat BA of the compounds on oral 1 mg/kg dosage.

hERG (IKr) = target: T7, hERG (IKr) (Homo sapiens, UniProt Q12809); test: hERG test (whole cell patch clamp, IKr); format: cell-based; conditions: HEK293 cells expressing hERG channel, pH 7.4, at 1 μmol/L, read-out: % inhibition of IKr (hERG tail peak current)
T7 construct: expressed in transfected cells; host or cells: HEK293
Description: For the purpose of assessing risk of an electrocardiogram QT interval prolongation, effects on delayed rectifier K^+ current (IKr), which plays an important role in the ventricular repolarization process, was studied using HEK293 cells expressing human ether-a-go-go related gene (hERG) channel. After a cell was retained at a membrane potential of −80 mV by whole cell patch clamp method using an automated patch clamp system (PatchXpress 7000A, Axon Instruments Inc.), IKr induced by depolarization pulse stimulation at +50 mV for 2 seconds and, further, repolarization pulse stimulation at −50 mV for 2 seconds was recorded. […] From the recording IKr, an absolute value of the tail peak current was measured based on the current value at the resting membrane potential using an analysis software (DataXpress ver.1, Molecular Devices Corporation). Further, the % inhibition relative to the tail peak current before application of the test substance was calculated, and compared with the vehicle-applied group (0.1% dimethyl sulfoxide solution) to assess influence of the test substance on IKr.

T7 sequence (Q12809 whole entry): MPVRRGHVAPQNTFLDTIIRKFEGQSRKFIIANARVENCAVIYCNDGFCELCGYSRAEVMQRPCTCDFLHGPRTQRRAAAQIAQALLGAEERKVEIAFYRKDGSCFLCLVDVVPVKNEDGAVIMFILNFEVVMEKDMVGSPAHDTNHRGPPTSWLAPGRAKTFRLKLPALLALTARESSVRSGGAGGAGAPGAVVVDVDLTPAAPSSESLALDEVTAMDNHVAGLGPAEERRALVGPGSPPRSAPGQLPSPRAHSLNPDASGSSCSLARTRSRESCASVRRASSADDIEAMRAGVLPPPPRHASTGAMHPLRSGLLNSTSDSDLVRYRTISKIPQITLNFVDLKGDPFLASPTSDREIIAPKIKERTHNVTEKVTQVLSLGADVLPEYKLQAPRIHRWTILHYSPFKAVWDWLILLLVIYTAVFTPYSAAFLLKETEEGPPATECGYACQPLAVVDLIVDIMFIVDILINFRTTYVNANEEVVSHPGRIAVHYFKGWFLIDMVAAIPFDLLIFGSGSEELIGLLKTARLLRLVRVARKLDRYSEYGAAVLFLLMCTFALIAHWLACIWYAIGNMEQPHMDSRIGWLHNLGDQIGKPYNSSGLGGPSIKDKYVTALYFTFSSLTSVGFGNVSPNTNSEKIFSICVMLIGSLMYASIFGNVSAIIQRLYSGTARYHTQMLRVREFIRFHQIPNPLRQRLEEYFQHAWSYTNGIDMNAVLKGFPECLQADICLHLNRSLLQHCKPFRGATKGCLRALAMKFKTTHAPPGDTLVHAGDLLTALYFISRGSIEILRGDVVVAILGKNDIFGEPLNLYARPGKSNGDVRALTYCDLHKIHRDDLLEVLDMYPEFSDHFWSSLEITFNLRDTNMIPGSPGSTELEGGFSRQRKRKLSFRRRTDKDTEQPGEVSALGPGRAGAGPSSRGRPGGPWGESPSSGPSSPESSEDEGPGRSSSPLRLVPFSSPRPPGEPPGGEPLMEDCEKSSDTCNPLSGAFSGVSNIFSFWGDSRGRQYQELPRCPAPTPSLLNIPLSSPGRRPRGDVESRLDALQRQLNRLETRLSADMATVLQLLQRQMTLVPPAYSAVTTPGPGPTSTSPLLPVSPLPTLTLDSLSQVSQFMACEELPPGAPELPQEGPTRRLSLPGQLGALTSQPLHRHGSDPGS
T6 sequence (P08684 whole entry): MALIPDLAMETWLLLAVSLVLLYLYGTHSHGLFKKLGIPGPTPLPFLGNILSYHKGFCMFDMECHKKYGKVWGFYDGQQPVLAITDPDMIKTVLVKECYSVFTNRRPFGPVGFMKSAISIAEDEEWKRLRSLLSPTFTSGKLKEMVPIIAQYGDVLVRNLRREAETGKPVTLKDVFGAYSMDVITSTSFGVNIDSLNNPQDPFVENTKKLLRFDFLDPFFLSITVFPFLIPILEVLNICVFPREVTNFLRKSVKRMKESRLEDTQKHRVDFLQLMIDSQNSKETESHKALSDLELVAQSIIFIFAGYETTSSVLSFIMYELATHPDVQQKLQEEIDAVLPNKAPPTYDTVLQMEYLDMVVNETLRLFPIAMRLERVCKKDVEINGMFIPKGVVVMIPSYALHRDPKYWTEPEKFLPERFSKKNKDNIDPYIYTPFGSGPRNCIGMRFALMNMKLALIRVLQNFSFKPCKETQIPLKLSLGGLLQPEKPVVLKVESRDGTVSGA
T5 sequence (P10635 whole entry): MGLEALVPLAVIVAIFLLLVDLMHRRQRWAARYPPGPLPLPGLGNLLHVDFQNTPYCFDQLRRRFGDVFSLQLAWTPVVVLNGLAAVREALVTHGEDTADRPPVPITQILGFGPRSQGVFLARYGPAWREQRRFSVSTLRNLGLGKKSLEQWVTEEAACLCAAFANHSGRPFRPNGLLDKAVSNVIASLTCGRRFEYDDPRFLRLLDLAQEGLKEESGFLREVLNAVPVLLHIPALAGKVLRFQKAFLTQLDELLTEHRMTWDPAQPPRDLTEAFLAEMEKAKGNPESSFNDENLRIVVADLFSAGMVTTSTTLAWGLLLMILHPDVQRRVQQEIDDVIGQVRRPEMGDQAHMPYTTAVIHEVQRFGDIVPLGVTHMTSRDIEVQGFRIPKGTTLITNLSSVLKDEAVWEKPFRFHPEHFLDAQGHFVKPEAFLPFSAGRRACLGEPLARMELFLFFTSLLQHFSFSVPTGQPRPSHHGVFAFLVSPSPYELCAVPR
T3 sequence (P33261 whole entry): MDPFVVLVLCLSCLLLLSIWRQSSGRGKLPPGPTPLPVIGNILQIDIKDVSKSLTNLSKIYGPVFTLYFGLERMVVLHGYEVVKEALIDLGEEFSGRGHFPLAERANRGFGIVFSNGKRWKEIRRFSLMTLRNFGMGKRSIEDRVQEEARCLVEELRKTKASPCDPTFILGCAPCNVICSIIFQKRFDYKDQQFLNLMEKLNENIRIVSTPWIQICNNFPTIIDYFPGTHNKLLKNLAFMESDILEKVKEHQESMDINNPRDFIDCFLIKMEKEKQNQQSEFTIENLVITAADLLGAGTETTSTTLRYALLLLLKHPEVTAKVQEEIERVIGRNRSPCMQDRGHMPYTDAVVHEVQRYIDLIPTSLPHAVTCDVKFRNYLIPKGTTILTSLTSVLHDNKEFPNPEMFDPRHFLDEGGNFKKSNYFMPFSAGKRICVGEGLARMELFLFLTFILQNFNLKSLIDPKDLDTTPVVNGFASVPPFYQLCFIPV
T4 sequence (P11712 whole entry): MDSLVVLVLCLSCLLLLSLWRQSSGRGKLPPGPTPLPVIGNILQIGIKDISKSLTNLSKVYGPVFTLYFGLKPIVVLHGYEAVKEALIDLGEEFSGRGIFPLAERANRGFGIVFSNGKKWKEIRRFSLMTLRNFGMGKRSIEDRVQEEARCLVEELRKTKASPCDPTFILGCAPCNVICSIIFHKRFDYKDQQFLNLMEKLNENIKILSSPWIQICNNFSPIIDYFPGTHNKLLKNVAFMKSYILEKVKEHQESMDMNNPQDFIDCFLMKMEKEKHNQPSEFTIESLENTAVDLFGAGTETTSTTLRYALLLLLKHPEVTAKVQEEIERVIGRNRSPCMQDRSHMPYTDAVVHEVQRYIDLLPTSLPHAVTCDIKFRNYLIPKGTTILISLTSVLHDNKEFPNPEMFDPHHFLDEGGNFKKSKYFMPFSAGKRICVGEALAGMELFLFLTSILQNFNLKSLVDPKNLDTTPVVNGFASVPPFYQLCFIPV

Row | Ki (human HRH4) [nM] | IC50 (CYP1A2) [nM] | IC50 (CYP2C19) [nM] | IC50 (CYP2C9) [nM] | IC50 (CYP2D6) [nM] | solubility at 16 h [1] [µM] | IC50 (CYP3A4 [3]) [nM] | bioavailability [4] [%] | Compound | CYP3A4 MBI: difference between IC50 values (CYP3A4 [2]) | inhibition at 10 min, 1 μmol/L (hERG (IKr)) [%]
1 | 63 | > 20000 | > 20000 | > 20000 | > 20000 | > 50 | > 20000 |  | CN1CCN(C(=O)c2cc3c([nH]2)CCC(F)(F)C3)CC1 [Compound I-050] | (−) (when the difference is 3 μM or less, this was defined as (−)) | 
2 | 150 |  |  |  |  |  |  | 31 | CN1CCN(C(=O)c2cc3c([nH]2)CCC(C#N)C3)CC1 (stereo not shown) [Compound I-035] |  | 0
3 | 270 |  |  |  |  |  |  |  | CN1CCN(C(=O)c2cc3c([nH]2)C(CO)CCC3)CC1 (stereo not shown) [Compound I-043] |  | 0
